Format in all cases: functional
Experiment [1] has as its system Saccharomyces cerevisiae. The experiment can be described thus: Antimicrobial activity against Saccharomyces cerevisiae BY4742 containing Aspergillus fumigatus fks1delta453-649 hybrid after 24 hrs by broth microdilution assay. The note with it: BY4742, 24 h. For orientation: Broth dilution looks for growth in wells or tubes with falling amounts of substance.
The subject of experiment [2] is Saccharomyces cerevisiae. The experiment can be described thus: Antimicrobial activity against Saccharomyces cerevisiae BY4742 containing Fusarium solani fks1617-649 with F639 mutant after 24 hrs by broth microdilution assay. The note with it: BY4742, 24 h.
The test system of experiment [3] is Saccharomyces cerevisiae. The experiment can be described thus: Antimicrobial activity against Saccharomyces cerevisiae BY4742 containing Fusarium solani fks1617-649 hybrid after 24 hrs by broth microdilution assay. The note with it: BY4742, 24 h.
Experiment [4] has as its system Saccharomyces cerevisiae. Description: Antimicrobial activity against Saccharomyces cerevisiae BY4742 containing Aspergillus fumigatus fks1617-649 hybrid after 24 hrs by broth microdilution assay. The note with it: BY4742, 24 h.
Experiment [5] has as its system Saccharomyces cerevisiae. The experiment can be described thus: Antimicrobial activity against Saccharomyces cerevisiae BY4742 transfected with Scedosporium prolificans FSK1 gene sequence after 24 hrs by broth microdilution assay. The note with it: BY4742, 24 h.
For experiment [6], the system named is Saccharomyces cerevisiae. The experiment can be described thus: Antimicrobial activity against Saccharomyces cerevisiae BY4742 fks1-F639Y mutant after 24 hrs by broth microdilution assay. The note with it: BY4742, 24 h.
Experiment [7] concerns Saccharomyces cerevisiae. The experiment can be described thus: Antimicrobial activity against Saccharomyces cerevisiae BY4742 fks1-F639F wild type after 24 hrs by broth microdilution assay. The note with it: BY4742, 24 h.
In experiment [8] the test system is Saccharomyces cerevisiae. Description: Antimicrobial activity against Saccharomyces cerevisiae BY4742 fks1delta617-649::URA3 deletant after 24 hrs by broth microdilution assay. The note with it: BY4742, 24 h.
In experiment [9] the test system is Nakaseomyces glabratus. Description: Antimicrobial activity against Candida glabrata containing fsk2-L588P/F639V mutant after 24 hrs by broth microdilution assay.
Experiment [10] deals with Nakaseomyces glabratus. The experiment can be described thus: Antimicrobial activity against Candida glabrata containing FSK2 after 24 hrs by broth microdilution assay.
The subject of experiment [11] is Saccharomyces cerevisiae. The experiment can be described thus: Antimicrobial activity against Saccharomyces cerevisiae BY4742 containing Fusarium solani fks1-FS453-649 with F639 mutant after 24 hrs by broth microdilution assay. The note with it: BY4742, 24 h.
The test system of experiment [12] is Saccharomyces cerevisiae. The experiment can be described thus: Antimicrobial activity against Saccharomyces cerevisiae BY4742 containing Fusarium solani fks1-FS453-649 hybrid after 24 hrs by broth microdilution assay. The note with it: BY4742, 24 h.
Experiment [13] has as its system Saccharomyces cerevisiae. Description: Antimicrobial activity against Saccharomyces cerevisiae BY4742 containing Candida glabrata fks1-CgR453-649 hybrid after 24 hrs by broth microdilution assay. The note with it: BY4742, 24 h.
Experiment [14] relates to Saccharomyces cerevisiae. Description: Antimicrobial activity against Saccharomyces cerevisiae BY4742 containing Candida glabrata fks1-CgS453-649 hybrid after 24 hrs by broth microdilution assay. The note with it: BY4742, 24 h.

MIC data for two compounds are collected here from ChEMBL document CHEMBL1629680, “Role for Fks1 in the intrinsic echinocandin resistance of Fusarium solani as evidenced by hybrid expression in Saccharomyces cerevisiae” (2009).

As a reminder, the MIC is the least concentration at which growth counts as inhibited.

Each structure is given as a SMILES string. In brackets after ≈: the same amount, converted by molar mass. *1 amine or outer side, *2 acyl side, *3 side chain or, on linkers, in order; H or OH if unused. Where a SMILES comes first, the peptide text is derived from it. Bridges are numbered along the chain shown (N, C = ends). [ ]: non-standard residue; d: D form. The star is where a group is joined. hTyr(3S-OH,4S-OH,3'-OSO3H) = N[C@H](C(=O)O)[C@H](O)[C@@H](O)c1ccc(O)c(OS(=O)(=O)O)c1; Orn(4R-OH,5R-OH) = O=C([C@H](C[C@@H](O)[C@@H](O)N[*:3])N[*:1])[*:2]; Pro(3S-OH,4S-Me) = C[C@H]1CN[C@H](C(=O)O)[C@H]1O; X1 = CCCCCOc1ccc(-c2cc(-c3ccc(C(=O)*)cc3)no2)cc1; Gln(3R-OH) = NC(=O)C[C@@H](O)[C@H](N)C(=O)O; Hyp = O=C(O)[C@@H]1C[C@@H](O)CN1

On to `CC[C@H](C)C[C@H](C)CCCCCCCCC(=O)N[C@H]1C[C@@H](O)[C@@H](NCCN)NC(=O)[C@@H]2[C@@H](O)CCN2C(=O)[C@H]([C@H](O)CCN)NC(=O)[C@H]([C@H](O)[C@@H](O)c2ccc(O)cc2)NC(=O)[C@@H]2C[C@@H](O)CN2C(=O)[C@H]([C@@H](C)O)NC1=O` [CASPOFUNGIN], for which the MIC turned out to be 0.002 µg/mL (≈ 0.00183 µM) in the experiment on Saccharomyces cerevisiae [1]; 0.008 µg/mL (≈ 0.00732 µM) in the experiment on Saccharomyces cerevisiae [2]; 0.25 µg/mL (≈ 0.229 µM) with Saccharomyces cerevisiae [3]; 0.008 µg/mL (≈ 0.00732 µM) in the experiment with Saccharomyces cerevisiae [4]; 0.031 µg/mL (≈ 0.0284 µM) with Saccharomyces cerevisiae [5]; 0.5 µg/mL (≈ 0.457 µM) with Saccharomyces cerevisiae [6]. Moreover, the MIC against Saccharomyces cerevisiae [7] came out at 0.031 µg/mL (≈ 0.0284 µM); against Saccharomyces cerevisiae [8], 0.002 µg/mL (≈ 0.00183 µM); against Nakaseomyces glabratus [9], 0.5 µg/mL (≈ 0.457 µM); with Nakaseomyces glabratus [10] it was 0.062 µg/mL (≈ 0.0567 µM); with Saccharomyces cerevisiae [11], 1 ng/mL (≈ 0.000915 µM); in the experiment on Saccharomyces cerevisiae [12], 0.008 µg/mL (≈ 0.00732 µM). For the same compound, the values for the MIC against Saccharomyces cerevisiae [13] and in the experiment with Saccharomyces cerevisiae [14] were 0.25 µg/mL (≈ 0.229 µM) and 0.031 µg/mL (≈ 0.0284 µM), respectively.
As to `CCCCCOc1ccc(-c2cc(-c3ccc(C(=O)N[C@H]4C[C@@H](O)[C@@H](O)NC(=O)[C@@H]5[C@@H](O)[C@@H](C)CN5C(=O)[C@H]([C@H](O)CC(N)=O)NC(=O)[C@H]([C@H](O)[C@@H](O)c5ccc(O)c(OS(=O)(=O)O)c5)NC(=O)[C@@H]5C[C@@H](O)CN5C(=O)[C@H]([C@@H](C)O)NC4=O)cc3)no2)cc1` [MICAFUNGIN] (X1-[Orn(4R-OH,5R-OH)]T[Hyp][hTyr(3S-OH,4S-OH,3'-OSO3H)][Gln(3R-OH)][Pro(3S-OH,4S-Me)]; lactam 1-C), the MIC in the experiment on Saccharomyces cerevisiae [1] amounted to 0.062 µg/mL (≈ 0.0488 µM); against Saccharomyces cerevisiae [2], 0.031 µg/mL (≈ 0.0244 µM); in the experiment with Saccharomyces cerevisiae [3], 0.25 µg/mL (≈ 0.197 µM); with Saccharomyces cerevisiae [4], 0.031 µg/mL (≈ 0.0244 µM); with Saccharomyces cerevisiae [5], 0.062 µg/mL (≈ 0.0488 µM); in the experiment with Saccharomyces cerevisiae [6], 0.5 µg/mL (≈ 0.394 µM). Also, the MIC was found to be 0.062 µg/mL (≈ 0.0488 µM) with Saccharomyces cerevisiae [7]; 0.062 µg/mL (≈ 0.0488 µM) against Saccharomyces cerevisiae [8]; 0.062 µg/mL (≈ 0.0488 µM) in the experiment on Nakaseomyces glabratus [9]; 0.031 µg/mL (≈ 0.0244 µM) against Nakaseomyces glabratus [10]; 8 ng/mL (≈ 0.0063 µM) against Saccharomyces cerevisiae [11]; 0.031 µg/mL (≈ 0.0244 µM) against Saccharomyces cerevisiae [12]. Besides, the MIC with Saccharomyces cerevisiae [13] was found to be 0.062 µg/mL (≈ 0.0488 µM); against Saccharomyces cerevisiae [14], 0.016 µg/mL (≈ 0.0126 µM).
